Test results as given in patent US20100184695A1, “VASCULAR ENDOTHELIAL CELL-BINDING PEPTIDE” (priority 2007, published 2010).
No end group written: not given here.

Assays:
[1] = system: HUVEC cells; assay: Uptake of fluorescently labeled peptide-PEG conjugate into endothelial cell (quantitative analysis); format: cell-based, human; conditions: fluorescein-labeled peptide-multiarm PEG conjugate, peptide 10 μM, 8 hours, 37° C.; fluorescence recovered from cells, added conjugate = 100%
Protocol: (§1) PEG having four maleimide groups per molecule (Multiarm PEG, SUNBRIGHT PTE-200MA, manufactured by NOF Corporation) was dissolved in DMSO at the concentration of 2 mM, 20 μl of this solution, and an equivalent amount (20 μl) of a 10 mM fluorescein-labeled peptide solution in DMSO were mixed to react them at room temperature for 2 hours. After 60 μl of PBS was added to dilute the mixture to the total amount of 100 μl, desalting treatment was performed using a spin column (Bio-Rad, Micro Bio-Spin Column 30) equilibrated by washing with 500 μl of PBS three times in advance, and an unbound peptide was separated and removed to obtain a peptide-multiarm PEG conjugate.
A 96-well microplate (glass bottom plate, Nunc No. 164588) was treated with 100 μl of a 1% acidic collagen solution for 10 minutes in advance, and washed with 120 μl of PBS once, and 1×10^5/ml of 100 μl of HUVEC cells were seeded, and cultured under the condition of 37° C. and 5% CO2 for 2 days. Upon use, cells were washed with 150 μl of a medium (EBM-2 medium containing a 2% fetal bovine serum (Cambrex Bio Science, containing a growth factor)) once, and 50 μl of the same medium, and 50 μl of a solution obtained by diluting a peptide-multiarm PEG conjugate (SEQ ID Nos. 12, 13, 16 (partial sequence of SEQ ID No. 14), and 77) prepared in Example 3 (1) with a medium to the peptide concentration of 20 μM were sequentially added, followed by culturing under the condition of 37° C. and 5% CO2 for 8 hours (the peptide concentration at reaction with cells was 10 μM). Cells after culturing were washed with 150 μl of a HBSS(+) buffer three times to remove an unbound peptide-multiarm PEG conjugate, and 100 μl of HBSS(+) containing 1% SDS to extract a peptide bound to, or taken into cells. The extract was transferred to another 96-well microplate (black plate), and fluorescence at an excitation wavelength of 490 nm and a detection wavelength of 530 nm was measured using a fluorophotometer. Letting the fluorescent intensity of each of the added peptide-multiarm PEG conjugate to be 100%, the amount (%) of uptake of the peptide into cells was calculated from the fluorescent amount recovered from cells.

[2] = system: HUVEC cells; assay: Uptake of fluorescently labeled peptide-BSA conjugate (image analysis); format: cell-based, human; conditions: peptide 10 μM, 8 hours
Protocol: (§2) In 1 ml of a 50 mM sodium bicarbonate solution was dissolved 20 mg of BSA, to prepare a 0.3 mM solution. To the total amount (1 ml) of this solution was added 20 μl of a 250 mM solution (final concentration: 5 mM) of NHS-PEO12-maleimide (catalog No. 22112, manufactured by Pierce) which is a divalent crosslinking reagent having a PEG chain spacer, followed by a reaction at room temperature for 1 hour. After the reaction, 100 μl of the solution was desalted using a spin column (Bio-Rad, Micro Bio-Spin Column 30) equilibrated by washing with 500 μl of a 0.1 M sodium phosphate buffer (pH 7.0) three times in advance. An unreacted crosslinking reagent was separated and removed. After desalting, 50 μl of the solution was mixed with an equivalent amount of a 0.1 M sodium phosphate buffer (pH 7.0) to dilute, and to 100 μl of the resulting solution was added 10 μl of a fluorescein-labeled peptide solution in DMSO, followed by a reaction at room temperature for 1 hour. The total amount of the solution after the reaction was desalted using a spin column (Bio-Rad, Micro Bio-Spin Column 30) equilibrated by washing with 500 μl of PBS three times in advance, thereby, an unbound peptide was separated and removed, to obtain a peptide-BSA conjugate solution.
A 96-well microplate (glass bottom plate, Nunc No. 164588) was treated with 100 μl of a 1% acidic collagen solution for 10 minutes in advance, and washed with 120 μl of PBS once, and 100 μl of 1×10^5/ml of HUVEC cells were seeded, and cultured under the condition of 37° C. and 5% CO2 for 2 days. Upon use, cells were washed with 150 μl of a medium (EBM-2 medium containing a 2% fetal bovine serum (Cambrex Bio Science, containing a growth factor)) once, and 50 μl of the same medium, and 50 μl of a solution obtained by diluting the peptide-BSA conjugate (SEQ ID Nos. 12, 13, 16, and 77) prepared in Example 3 (2) with a medium to the peptide concentration of 20 μM were sequentially added, followed by culturing under the condition of 37° C. and 5% CO2 for 8 hours (the peptide concentration at reaction with cells was 10 μM). Cells after the reaction were observed using a confocal laser microscope (Olympus FV1000).

[3] = system: HUVEC cells; assay: Uptake of fluorescently labeled peptide-multiarm PEG conjugate into endothelial cell (image analysis scoring); format: cell-based, human; parameters: key: Score 0: No fluorescent luminescent spot in a cell is recognized.; Score 1: Faint fluorescent luminescent spots are recognized in a cell.; Score 2: Fluorescent luminescent spots clearer than in score 1 are recognized in a cell.; Score 3: Many luminescent spots further brighter than in score 2 are seen in a cell; conditions: fluorescein-labeled multiarm PEG-peptide conjugate, peptide 16 μM, 8 hours
Protocol: as §1
A 96-well microplate (glass bottom plate, Nunc No. 164588) was treated with 100 μl of a 1% acidic collagen solution for 10 minutes in advance, and washed with 120 μl of PBS once, and 100 μl of 1×10^5/ml of HUVEC cells were seeded, and cultured under the condition of 37° C. and 5% CO2 for 2 days. Upon use, cells were washed with 150 μl of a medium (EBM-2 medium containing a 2% fetal bovine serum (Cambrex Bio Science, containing a growth factor)) once, and 50 μl of the same medium, and 50 μl of a solution obtained by diluting the multiarm PEG-peptide conjugate (a peptide of SEQ ID No. 12 and a partial peptide thereof (SEQ ID Nos. 17, 18, and 19), a peptide of SEQ ID No. 13 and a partial peptide thereof (SEQ ID Nos. 15, 20, and 21), and a random sequence peptide (SEQ ID No. 77)) prepared in Example 3 (1) with a medium to the peptide concentration of 32 μM were sequentially added, followed by culturing under the condition of 37° C. and 5% CO2 for 8 hours (the peptide concentration at reaction with cells was 16 μM). The cell after the reaction was observed using a confocal laser microscope (Olympus FV1000). The amount of fluorescent luminescent spots derived from the peptide recognized in a cell was scored as follows.
Score 0: No fluorescent luminescent spot in a cell is recognized. Score 1: Faint fluorescent luminescent spots are recognized in a cell. Score 2: Fluorescent luminescent spots clearer than in score 1 are recognized in a cell. Score 3: Many luminescent spots further brighter than in score 2 are seen in a cell.

[4] = system: HUVEC cells; assay: Uptake of fluorescently labeled peptide-BSA conjugate into endothelial cell (quantitative analysis); format: cell-based, human; conditions: fluorescein-labeled peptide-BSA conjugate, peptide 10 μM, 8 hours, 37° C.; fluorescence recovered from cells
Protocol: as §2
On a 96-well microplate (Corning No. 3595) were seeded 100 μl of 1×10^5/ml HUVEC cells, and cells were cultured under the condition of 37° C. and 5% CO2 for 2 days. Upon use, cells were washed with 150 μl of a medium (EBM-2 medium containing a 2% fetal bovine serum (Cambrex Bio Science, containing a growth factor)) once, and 50 μl of the same medium, and 50 μl of a solution obtained by diluting the peptide-BSA conjugate (SEQ ID Nos. 12, 13, 16, and 77) prepared in Example 3 (2) with a medium to the peptide concentration of 20 μM were sequentially added, followed by culturing under the condition of 37° C. and 5% CO2 for 8 hours (the peptide concentration at reaction with cells was 10 μM). Recovery of the peptide-BSA conjugate bound to, or taken into cells after the reaction, and fluorescence quantitation were performed in the same method as in Example 3.

[5] = system: HeLa; assay: Uptake of fluorescently labeled peptide-BSA conjugate (image analysis); format: cell-based; conditions: HeLa comparative cell; compared with uptake into a HUVEC
[6] = system: normal human umbilical vein endothelial cell; assay: Uptake of peptide-modified liposome encapsulating doxorubicin into HUVEC (quantification analysis); format: cell-based; conditions: doxorubicin-encapsulated peptide-modified liposome, 6 hours
Protocol: Hydrogenated soybean phosphatidyl choline (10 mg), cholesterol (3.4 mg),
distearoylphosphatidylethanolamine-polyethylene glycol 5000 (3.5 mg), and distearoylphosphatidylethanolamine-polyethylene glycol 5000-maleimide (3.1 mg) were dissolved in chloroform, and a solvent in a flask was removed using an evaporator to form a thin film. To this was added 1.7 mL of a 250 mM aqueous ammonium sulfate solution, followed by heating at 65° C. The resulting vesicle was adjusted in a particle size with an extruder using, subsequently, porous membranes of the pore sizes of 1.0 μm, 0.4 μm, and 0.2 μm. Into the prepared liposome having the particle diameter of about 200 nm was encapsulated doxorubicin by a remote loading method. After unencapsulated doxorubicin was removed with a column, peptides (SEQ ID Nos. 12, 13, 76 (partial sequence of SEQ ID No. 7), and 78) were added, respectively, at the ⅕ amount based on maleimide, and a liposome into which various peptides are introduced was prepared. Unreacted maleimide was inactivated by adding the 3-fold amount of 2-mercaptoethanol.
Regarding a 50 to 60% confluent normal human umbilical vein endothelial cell cultured in a 24-well plate, a medium was exchanged, and a doxorubicin-encapsulated peptide-modified liposome solution was added in the half amount of a medium. After 6 hours, cells were washed with a phosphate buffer, treated with trypsin, and cells were collected by a centrifugation procedure. To a cell pellet was added 50 μL of 10% Triton X-100 to dissolve cells and the doxorubicin-encapsulated peptide-modified liposome, 350 μL of isopropanol with 10% 0.75 M HCl added thereto was added, and this was allowed to stand overnight at −20° C. After a centrifugation procedure, the supernatant was analyzed with an ODS column, and doxorubicin taken in the cell was quantitated.

## EYDLSTAGGAAA [Sequence-77, reference compound]
[1]
  Recovery of Peptide-PEG conjugate (%): 0.020%
[2]
  Uptake of peptide-BSA conjugate into cell (confocal laser microscopic image): no peptide in, a cell was observed
[3]
  Intracellular Fluorescence (Score): 0
[4]
  Recovery of Peptide-BSA conjugate (%): 0.029%

## GTQLFLIH [Sequence-16]
[1]
  Recovery of Peptide-PEG conjugate (%): 0.047%
[2]
  Uptake of peptide-BSA conjugate into cell (confocal laser microscopic image): many bright luminescent spots were observed in a cell
[4]
  Recovery of Peptide-BSA conjugate (%): 0.227%
[5]
  Uptake of peptide-BSA conjugate into cell (confocal laser microscopic image): an extremely small amount of peptides were observed in a cell

## PFLPLYVP [Sequence-15]
[3]
  Intracellular Fluorescence (Score): 2

## PLALLTVH [Sequence-19]
[3]
  Intracellular Fluorescence (Score): 1

## PSPLALLT [Sequence-18]
[3]
  Intracellular Fluorescence (Score): 1

## SEQ ID No. 76: partial sequence of SEQ ID No. 7; sequence not printed in the text (VIPILSIYTA; Designed peptide acting as a vascular endothelial cell binding peptide)
[6]
  Amount of uptake of doxorubicin compared with random sequence (SEQ ID No. 78) liposome and liposome with no peptide: remarkably increased

## SLTVPFLP [Sequence-20]
[3]
  Intracellular Fluorescence (Score): 1

## SLTVPFLPLYVP [Sequence-13, peptide presented by phage PhD clone3-30]
[1]
  Recovery of Peptide-PEG conjugate (%): 0.122%
[6]
  Amount of uptake of doxorubicin compared with introduction of SEQ ID Nos. 12 and 76: higher
  Amount of uptake of doxorubicin compared with random sequence (SEQ ID No. 78) liposome and liposome with no peptide: remarkably increased
  Amount of uptake of doxorubicin relative to no peptide introduction: about 3 fold
[2]
  Uptake of peptide-BSA conjugate into cell (confocal laser microscopic image): many bright luminescent spots were observed in a cell
[3]
  Intracellular Fluorescence (Score): 2
[4]
  Recovery of Peptide-BSA conjugate (%): 0.116%
[5]
  Uptake of peptide-BSA conjugate into cell (confocal laser microscopic image): an extremely small amount of peptides were observed in a cell

## TLPSPLAL [Sequence-17]
[3]
  Intracellular Fluorescence (Score): 1

## TLPSPLALLTVH [Sequence-12, peptide presented by phage PhD clone1-14]
[1]
  Recovery of Peptide-PEG conjugate (%): 0.211%
[6]
  Amount of uptake of doxorubicin compared with random sequence (SEQ ID No. 78) liposome and liposome with no peptide: remarkably increased
[2]
  Uptake of peptide-BSA conjugate into cell (confocal laser microscopic image): many bright luminescent spots were observed in a cell
[3]
  Intracellular Fluorescence (Score): 3
[4]
  Recovery of Peptide-BSA conjugate (%): 0.127%
[5]
  Uptake of peptide-BSA conjugate into cell (confocal laser microscopic image): an extremely small amount of peptides were observed in a cell

## TVPFLPLY [Sequence-21]
[3]
  Intracellular Fluorescence (Score): 1
